Where two headings read alike, the source gives them in different places.
Assays:
[1] = molecular target: T1, Full-length human CHK1 protein (Homo sapiens, UniProt O14757); assay: Kinase HTRF biochemical assay (CHK1 enzyme inhibition); conditions: HTRF KinEASE, ATP 1 mM; read-out: CHK1 biochemical potency (IC50)
T1 construct: purchased Carna Biosciences, Inc. 02-117
T1 sequence (O14757 1-476): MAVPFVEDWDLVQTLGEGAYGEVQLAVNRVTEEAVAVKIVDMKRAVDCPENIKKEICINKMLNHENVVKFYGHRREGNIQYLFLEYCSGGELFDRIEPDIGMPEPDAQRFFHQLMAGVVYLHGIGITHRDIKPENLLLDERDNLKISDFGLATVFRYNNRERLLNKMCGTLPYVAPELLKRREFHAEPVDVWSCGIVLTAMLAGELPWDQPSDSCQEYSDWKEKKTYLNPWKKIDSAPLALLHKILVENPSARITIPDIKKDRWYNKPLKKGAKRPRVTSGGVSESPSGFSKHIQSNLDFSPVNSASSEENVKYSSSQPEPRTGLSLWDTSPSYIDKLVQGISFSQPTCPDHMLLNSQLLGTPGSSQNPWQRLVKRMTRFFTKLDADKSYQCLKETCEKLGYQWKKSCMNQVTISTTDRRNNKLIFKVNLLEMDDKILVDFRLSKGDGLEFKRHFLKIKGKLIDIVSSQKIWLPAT
Experimental: CHK1 enzyme activity was measured using a homogeneous time resolved fluorescence (HTRF) KinEASE assay (Cisbio, catalogue no. 62ST1PEC). Full-length human CHK1 protein (GenBank accession number NP_001265.1) was obtained from Carna Biosciences, Inc. (catalogue no. 02-117). The enzyme reaction was carried out in assay buffer containing (final concentrations): CHK1 enzyme (0.012 ng µl^−^1), MgCl2 (5 mM) and DTT (1 mM). To determine compound dose response, DMSO stock solutions were serially diluted in a ten-point concentration series in duplicate. Compound solution (50 nl) was added to 384-well assay plates (Greiner, catalogue no. 784075). To each well containing compound solution was added assay buffer solution (5 µl). Plates were centrifuged at 1,000 rpm for 1 min, then incubated at room temperature for 10 min. The reaction was started by addition of substrate buffer (5 µl per well) containing (final concentrations): STK substrate 1-biotin (120 nM) and ATP (1 mM). Assay plates were centrifuged at 1,000 rpm for 1 min, then incubated at room temperature for 60 min. The reaction was stopped by the addition of detection buffer (Cisbio, 10 µl) containing (final concentrations): STK antibody cryptate (0.25 nM) and streptavidin-XL665 (7.5 nM). […] HTRF signal was read on an EnVision multimode plate reader (Cisbio) in HTRF mode. […]

[2] = tested on: CHK1/CHK2; assay: CHK1/CHK2 selectivity; type: biochemical
[3] = tested on: pCHK1-S345 in HT29 cells; assay: AlphaLISA SureFire Ultra p-CHK1 (Ser345) assay in HT29 cells; type: cell-based; conditions: 16 h, read-out: CHK1 cellular potency AlphaLisa (IC50)
Experimental: Compound activity in cells was measured using an AlphaLISA SureFire Ultra p-CHK1 (Ser345) assay (Perkin Elmer, catalogue no. ALSU-PCHK1-A10K). HT29 cells were cultured in McCoy 5 A medium with 10% FBS and 1% penicillin-streptomycin and seeded to 96-well plates (Corning, catalogue no. 3599). Compounds were serially diluted in DMSO over a 10-point dose range with 3-fold dilution, and compound solution was added to each well containing cells. Plates were centrifuged at 1,000 rpm for 30 s. Plates were incubated at 37 °C for 16 h. Supernatant was removed by flicking the plate against a paper towel. Wells were washed once with PBS solution. To each well was added freshly prepared lysis buffer and plates were agitated on a plate shaker at 400 rpm for 30 min. The 96-well cell plates were centrifuged at 1,500 rpm for 1 min. From each well was transferred 10 µl of the lysates to a 384-well Optiplate (Perkin Elmer, catalogue no. 6007290). To each well was added Acceptor Mix (5 µl) and the plates were sealed and wrapped in foil. Plates were agitated on a plate shaker for 2 min, then incubated at room temperature for 1 h. To each well was added Donor Mix (5 µl) and the plates were sealed and wrapped in foil. Plates were agitated on a plate shaker for 2 min, then incubated at room temperature for 1 h. AlphaLisa signal was read on an EnVision multimode plate reader (Perkin Elmer). […]

[4] = tested on: COLO320DM cells; assay: Cell viability / CTG proliferation (CellTiter-Glo); type: cell-based, human
Experimental: (§1) Cell viability assay was performed using CellTiter-Glo (Promega, catalgoue no. G8461) as previously described. Briefly, cells were seeded into a 384-well plate one day before adding inhibitors. Equal volumes of vehicles or drugs diluted at indicated concentration were added into each well the next day, and the cells were incubated for three days. On the third day, after equilibrating plate and CellTiter-Glo reagent at room temperature for 30 min, reagent was added into each well and incubated for 15 min at room temperature. Luminescence was measured using a Synergy 2 microplate reader. Four biological replicates were performed for each condition. Data analysis was performed with GraphPad Prism (v.9.1.0).

[5] = tested on: COLO320HSR cells; assay: Cell viability / CTG proliferation (CellTiter-Glo); type: cell-based, human; conditions: for IC50: Extended Data Fig. 8
Experimental: as §1

[6] = tested on: SNU16 cells; assay: Cell viability (CellTiter-Glo); type: cell-based, human; conditions: Extended Data Fig. 8; read-out: IC50 SNU16
Experimental: as §1, with “(v.9.1.0). […]” for “(v.9.1.0).”

[7] = tested on: GBM39HSR cells; assay: Cell viability (CellTiter-Glo); type: cell-based, human; conditions: Extended Data Fig. 8
Experimental: as §1

[8] = tested on: GBM39ec cells; assay: Cell viability (CellTiter-Glo); type: cell-based, human; conditions: Extended Data Fig. 8
Experimental: as §1

[9] = tested on: γH2AX in COLO320DM and COLO320HSR cells; assay: γH2AX IF combined with EdU labelling; type: cell-based, human; conditions: COLO320DM vs COLO320HSR, especially EdU+ cells
Experimental: Coverslips were coated with 100 µg ml^−^1 poly-L-lysine overnight or 10 µg ml^−^1 laminin for 1 h at 37 °C before seeding cells. Asynchronized cells were seeded onto slides and subject to different treatment. Where indicated, EdU was added to each well at 10 µg ml^−^1 30 min before collecting samples. IF and dual-IF DNA FISH staining were performed as described before. Briefly, slides were fixed with ice-cold 4% paraformaldehyde (PFA) for 15 min, followed by permeabilization with 0.5% Triton X-100 in PBS for 15 min at room temperature. Samples were blocked with 3% BSA in PBS for 1 h at room temperature before incubation with primary antibody diluted in blocking buffer at 4 °C overnight. Dilution ratio for first antibodies was as follows: γH2Ax, 1:500; pRPA2-S33, 1:1,000; pCHK1S345, 1:250; 53BP1, 1:500; cyclin A, 1:100; pRNAPII S2/S4, 1:1,000. […]
Image analysis and quantification were performed using the open-source software CellProfiler (v.4.2.1). For foci number analysis, DAPI staining, IF staining and DNA FISH channel were analysed through automatic thresholding and segmentation to cell nuclei, pRPA2S33/γH2AX foci and DNA FISH foci respectively. […] For fluorescence intensity measurement, nuclei were called based on DAPI channel through automatic thresholding and segmentation; mean fluorescence intensity was retrieved by measuring mean fluorescence intensity within each nucleus.

[10] = tested on: ecDNA-containing tumour cells; assay: TUNEL and PI-Annexin V staining (apoptosis); type: cell-based, human; conditions: 1 µM CHIR-124, ecDNA-containing vs HSR cells
Experimental: TUNEL assay (Invitrogen, catalogue no. C10617) was performed to detect DNA fragmentation during apoptosis. COLO320DM, COLO320HSR and SNU16 cells were treated with 1 µM CHIR-124 for indicated times. All cells including floating cells were collected and spun down onto slides using a cytospin (Thermo Scientific Cytospin 4 Centrifuge). Slides were fixed with 4% PFA and permeabilized with 0.25% Triton X-100, followed by labelling of free double strand end with EdUTP by reaction catalysed by TdT enzyme in a humidified chamber at 37 °C for 60 min. Incorporated EdUTP was detected through Click-iT Plus TUNEL reaction according to the manufacturer’s manual at 37 °C for 30 min. Slides were counterstained with DAPI and mounted with ProLong Diamond Antifade.
Cell apoptosis was detected through flow cytometry using a FITC Annexin V Apoptosis Detection Kit (BD Biosciences, catalogue no. 556547). Cells were treated with 1 µM of CHIR-124 for the indicated time, and all the cells including floating cells were collected. After washing with PBS twice and cell number counting, cells were resuspended in 1× binding buffer provided by the kit at a concentration of 1 × 10^6 cells per millilitre. […] After incubation at room temperature for 15 min, all the samples were analysed with BD LSR II flow cytometry (BD Biosciences) within 1 h. Flow cytometry data were analysed through Beckman Coulter Kaluza software (v.2.1).

[11] = Extended Data Fig. 8, read-out: IC50 COLO320DM

Structure (SMILES) | IC50 [1] | CHK1/CHK2 selectivity [2] | IC50 [3] | IC50 ([4]; COLO320DM cells, read-out: CTG proliferation ecDNA+ (IC50)) | IC50 [4, 11] | IC50 [5] | IC50 fold higher in COLO320HSR compared to COLO320DM ([5]; Fig. 3d) | IC50 [6] | IC50 [7] | IC50 [8] | DNA damage (γH2AX IF) [9] | cell apoptosis (TUNEL, PI-Annexin V) [10]
N[C@@H]1CCCN(c2c(Br)cnc3[nH]cc(NC(=O)C4CC4)c23)C1 [GDC-0575] | 12 nM | 1.5× | 122 nM | 105 nM | 167 nM | 588 nM |  |  |  |  |  | 
O=c1[nH]c2ccc(Cl)cc2c(N[C@@H]2CN3CCC2CC3)c1-c1nc2ccccc2[nH]1 [CHIR-124] |  |  |  |  | 146 nM | 1120 nM | approximately 4 fold | 150 nM | 1660 nM | 581 nM | significantly higher DNA damage in COLO320DM compared with COLO320HSR | more rapid and higher degree of cell apoptosis

— paper PMC11540844, “Enhancing transcription–replication conflict targets ecDNA-positive cancers” (Nature, 2024)
